Here are results for 2 substances from patent US20090036380A1, “Composition And Method For Brain Tumor Therapy” (Yeda Research and Development Co., Ltd., priority 2006, published 2009).

One series deals with Hek cells. As to the kind of experiment: Viability (XTT) and morphology of Hek cells co-transfected with Karet and receptors. In kind it is cell-based, human. Particulars: 24 hours after transfection; for cell morphology: microscope. As to the method: FIGS. 21a-q are photomicrographs of Hek cells 24 hours after transfection with karet, Trk receptors, EGFR and/or P75 constructs. […] FIG. 21a—cells transfected with TrkA and pcDNA3; FIG. 21b—TrkA and Karet; FIG. 21c—TrkA and Karet F217V; FIG. 21d—Karet and pcDNA4; FIG. 21e—Karet F217V and pcDNA4; FIG. 21f—TrIcA and pcDNA3; FIG. 21g—TrkB and pcDNA3; FIG. 21h—TrkC and pcDNA3; FIG. 21i—TrkA and Karet;
FIG. 21j—TrkB and Karet; FIG. 21k—TrkC and Karet; FIG. 21l—Karet and pcDNA3; FIG. 21m—TrkC (low concentration) and pcDNA3; FIG. 21n—EGFR-Flag and pcDNA3; FIG. 21o—p75 and pcDNA3; FIG. 21p—EGFR-Flag and Ha-Karet; FIG. 21q—p75 and Ha-Karet.
FIGS. 22a-b are histograms depicting the effect of co-transfection of Karet and TrkA on cell death in Hek (FIG. 22a) or NNR5 (FIG. 22b) cells. FIG. 22a—Hek cells were co-transfected with Karet or control vector and TrkA, TrkB and TrkC. Viability of the cells was measured 24 hours after transfection by XTT. *p<0.05; FIG. 22b—NNR5 cells were co-transfected with Karet or control vector and TrkA, TrkB and TrkC. Cells were analyzed by FACS 24 hours after transfection using the dead/live kit. ** p<0.001.
FIG. 23 is a histogram depicting the effect of co-transfection of EGFR and Karet on cell death in Hek cells. Hek cells were co-transfected with Karet or control vector and p75, EGFR and PTB. Viability of the cells was measured 24 hours after transfection by XTT. ** p<0.001.
Cell proliferation was evaluated using the Cell proliferation assay with XTT reagent (Cat. No. 20-300-1000), Biological Industries, Beth Haemek, Israel, according to manufacturer's instructions.
To test whether Karet is capable of inducing cell death in other cells such as human HEK or NNR5 cells, the cells were transfected with various receptors and Karet constructs and the effect on cell death was determined by microscopic observation of cell morphology and using cell viability assays, as follows.
For orientation: Tetrazolium dyes change colour on reduction, which living cells bring about.

The subject of a further series is TrkA. Briefly: Co-immunoprecipitation of HA-Karet constructs with TrkA. In kind it is binding. Particulars: co-transfected Hek or NNR5 cells, anti-HA IP. As to the method:
FIG. 3c is a co-immunoprecipitation assay depicting co-immunoprecipitation of HA-Karet with TrkA in COS cells. Karet tagged with the HA epitope was immunoprecipitated with anti-HA antibody and the blot was incubated with anti-TrkA (RTA). In control experiments the HA-Karet was substituted with vector.
FIG. 3d is a co-immunoprecipitation assay depicting interaction of Karet and TrkA in NNR5 cells transfected with TrkA.
FIG. 3e is a co-immunoprecipitation assay depicting co-immunoprecipitation of HA-Karet with TricA in co-transfected NNR5 cells immunoprecipitated with anti-HA (Roche) and Western blot with the anti-TrkA antibody C14 (Santa Cruz).
FIGS. 4a-c are co-immunoprecipitation assay results depicting the influence of NGF treatment on TrkA-Karet interaction. FIG. 4a depicts that TrkA-Karet interaction occurred prior to NGF treatment and was enhanced after ligand stimulation for 10 minutes (10 m) or 2 hours (2 h). HA-Karet was electroporated into cell line PC12, and the cells were treated with 50 ng/ml NGF for the indicated time periods in order to activate p75 and TrkA. Karet tagged with the HA epitope was immunoprecipitated with anti-HA antibody, the precipitated proteins were separated electrophoretically, and gel blots were incubated with anti-TrkA antibody (RTA). FIG. 4b depicts that necdin seems to compete with TrkA for binding to Karet. myc-Karet was electroporated into necdin stable cell line, and the cells were treated with 50 ng/ml NGF for the indicated time periods. Karet tagged with the myc epitope was immunoprecipitated with anti-myc antibody, the precipitated proteins were separated electrophoretically, and gel blots were incubated with anti-TrkA antibody (RTA). […] A blot from the same experiment was stripped and re-incubated with anti-necdin antibody. The arrow indicates the glycosylated form of TrkA (molecular weight of 140 kDa).
FIG. 7b is an immunoprecipitation assay depicting that the PTB domain-containing Karet(1-228) mutant, but not Karet(228-453) co-immunoprecipitates with TrkA in NNR5 cells. Truncation mutants tagged with the HA epitope were immunoprecipitated with anti-HA antibody, the precipitated proteins were separated electrophoretically, and gel blots were incubated with anti-TrkA (RTA).
FIGS. 24a-d depict co IP of Ha Karet with TrkA, TrkB, TrkC, p75 from co-transfected Hek cells. Cells were co-transfected with Ha Karet or control vector and TrkA, TrkB, TrkC or p75. Cells were lysed with NP40, the HA-beads (beads conjugated to anti-HA antibody) were blocked with Hek lysate, and elution was done for 30 minutes at 37° C. […]

Setting [1] is: Hek cells co-transfected with TrkA.

As to “Karet F217V: full-length mouse Karet with phenyl alanine at position 217 point mutated to valine”, in the series with Hek cells (setting [1]), the cell morphology entry is recorded as “transfection-induced cell death”. Besides, in the series with TrkA, the “co-immunoprecipitation / interaction with TrkA” value is “co-immunoprecipitated”.
In the case of “Karet: full-length mouse Karet protein (SEQ ID NO:1), PTB domain protein, expressed from pcDNA3 with HA tag”, the “decrease in living cells” value with Hek cells (HEK cells co-transfected with Karet and TrkA, XTT) was found to be 50%. Also, the “decrease in cell viability” value in the series with Hek cells (Hek cells co-transfected with EGFR and Karet, XTT) was 40%. Also, the cell morphology entry with Hek cells (Hek cells co-transfected with EGFR) and in the series on Hek cells (setting [1]) was “morphology change which is consistent with cell death” in each case. Besides, the “co-immunoprecipitation / interaction with TrkA” value in the series on TrkA is given as “co-immunoprecipitated”.
